Experimental data from patent publication US20210252009A1, “COMPOSITION COMPRISING FLT3 INHIBITOR AS EFFECTIVE INGREDIENT FOR INHIBITING DRUG RESISTANCE IN CHRONIC MYELOGENOUS LEUKEMIA” (INDUSTRY-ACADEMIC COOPERATION FOUNDATION, YONSEI UNIVERSITY, priority 2018, published 2021).

Legend:
[1] = test system: FLT3-transformed K562 cells; experiment: Drug tolerance test: surviving cells counted after 17 days of anticancer drug treatment; format: cell-based; details: K562 FLT3, 1 μM drug
Method: Drug tolerance was tested using FLT3-transformed K562 cells (ATCC, CCL-243) mimicking the blast crisis of chronic myelogenous leukemia.
After administering three anticancer drugs against chronic myelogenous leukemia for 17 days to the FLT3-transformed K562 cells, the surviving cells were counted (Table 1).

[2] = test system: wild-type (WT) K562 cells; experiment: as above; format: cell-based; details: 1 μM drug
[3] = test system: FLT3-transformed K562 cells; experiment: MTT assay, inhibitors against FLT3 subfactors co-treated with imatinib; format: cell-based; details: for Apoptotic effect and drug tolerance (MTT) when co-treated with imatinib: imatinib 1 μM plus inhibitor at three concentrations, 4 days, FIGS. 9a-9e; for Apoptotic effect and drug tolerance when JAK, STAT3, TAZ, TEAD and CD36 are inhibited: summary statement in the description, treatment conditions not given
Method: AZD1480 (Selleckem, Cat. No. S2162) was used as a JAK inhibitor, C188-9 (Selleckem, Cat. No. S8605) was used as a STAT3 inhibitor, verteporfin (Selleckem, Cat. No. S1786) was used as a TAZ inhibitor, flufenamic acid (Selleckem, Cat. No. S4268) was used as a TEAD inhibitor, and sulfo-N-succinimidyl oleate (Cayman, Cat. No. 11211) was used as a CD36 inhibitor. […] After treating with each inhibitor for 4 days, MTT assay was conducted in the same manner as in Test Example 5 and absorbance was measured at 540 nm using a multiplate reader (FIG. 9).

[4] = test system: FLT3-transformed K562 cells having resistance to three drugs (imatinib, dasatinib and nilotinib); details: single agent; FIGS. 4-7
[5] = test system: FLT3-transformed K562 cells having resistance to imatinib; experiment: MTT assay, FLT3 inhibitors co-administered with imatinib; format: cell-based; details: 1 μM imatinib alone, 5 days
Method: The cells were cultured using DMEM (Hyclone) containing 10% FBS (Gibco). […] The concentration of the FLT3 inhibitor was as follows. […] 5 days later, after adding 100 μL of an MTT labeling reagent included in a cell proliferation kit (Roche) to each well for 2 hours and then treating with […] of a solubilization solution for 24 hours, absorbance was measured at a wavelength of 540 nm using a multiplate reader (FIGS. 8a-8c).

Row | Compound | Cell number ([1]; Day 5) | Cell number ([1]; Day 9) | Cell number ([1]; Day 11) | Cell number ([1]; Day 13) | Cell number ([1]; Day 15) | Cell number ([1]; Day 17) | Cell number ([2]; Day 0) | Cell number ([2]; Day 5) | Cell number ([2]; Day 9) | Cell number ([2]; Day 11) | Cell number ([2]; Day 13) | Cell number ([2]; Day 15) | Cell number ([2]; Day 17) | Apoptotic effect and drug tolerance (MTT) when co-treated with imatinib [3] | Apoptotic effect and drug tolerance when JAK, STAT3, TAZ, TEAD and CD36 are inhibited [3] | Cell number ([1]; Day 0) | Killing of resistant cells, treated only with the one agent [4] | Killing of FLT3-overexpressed K562 cells (MTT), imatinib only [5]
1 | Cc1nc(Nc2ncc(C(=O)Nc3c(C)cccc3Cl)s2)cc(N2CCN(CCO)CC2)n1 [dasatinib] | 1.57 × 10^5 | 2.87 × 10^5 | 2.23 × 10^5 | 2.26 × 10^5 | 1.76 × 10^5 | 9.33 × 10^5 | 1 × 10^5 | 0.8075 × 10^5 | 0.35 × 10^5 | 0.47 × 10^5 | 0 × 10^5 | 0 × 10^5 | 0 × 10^5 | – | – | – | – | –
2 | CCCCCCCC/C=C\CCCCCCCC(=O)ON1C(=O)CC(S(=O)(=O)O)C1=O (centres unmarked) [sulfo-N-succinimidyl oleate] | – | – | – | – | – | – | – | – | – | – | – | – | – | remarkably enhanced apoptotic effect and inhibited drug tolerance | apoptotic effect is enhanced remarkably and drug tolerance is inhibited | – | – | –
3 | Cc1cc(Nc2nc(N[C@@H](C)c3ncc(F)cn3)ncc2Cl)n[nH]1 [AZD1480] | – | – | – | – | – | – | – | – | – | – | – | – | – | remarkably enhanced apoptotic effect and inhibited drug tolerance | apoptotic effect is enhanced remarkably and drug tolerance is inhibited | – | – | –
4 | verteporfin | – | – | – | – | – | – | – | – | – | – | – | – | – | remarkably enhanced apoptotic effect and inhibited drug tolerance | apoptotic effect is enhanced remarkably and drug tolerance is inhibited | – | – | –
5 | Cc1cn(-c2cc(NC(=O)c3ccc(C)c(Nc4nccc(-c5cccnc5)n4)c3)cc(C(F)(F)F)c2)cn1 [nilotinib] | 2.0975 × 10^5 | 1.38 × 10^5 | 2.64 × 10^5 | 2.84 × 10^5 | 4.52 × 10^5 | 17.1 × 10^5 | 1 × 10^5 | 0.9675 × 10^5 | 0.23 × 10^5 | 0.76 × 10^5 | 0.09 × 10^5 | 0 × 10^5 | 0 × 10^5 | – | – | 1 × 10^5 | hardly killed | –
6 | COc1ccc(S(=O)(=O)Nc2cc(-c3c(O)ccc4ccccc34)c(O)c3ccccc23)cc1 [C188-9] | – | – | – | – | – | – | – | – | – | – | – | – | – | remarkably enhanced apoptotic effect and inhibited drug tolerance | apoptotic effect is enhanced remarkably and drug tolerance is inhibited | – | – | –
7 | Cc1ccc(NC(=O)c2ccc(CN3CCN(C)CC3)cc2)cc1Nc1nccc(-c2cccnc2)n1 [imatinib] | 1.013 × 10^5 | 1.905 × 10^5 | 1.82 × 10^5 | – | 3.17 × 10^5 | 14.3 × 10^5 | 1 × 10^5 | 0.485 × 10^5 | 0.058 × 10^5 | 0.52 × 10^5 | 0.175 × 10^5 | 0 × 10^5 | 0 × 10^5 | – | – | 1 × 10^5 | hardly killed | could not be killed
8 | O=C(O)c1ccccc1Nc1cccc(C(F)(F)F)c1 [flufenamic acid] | – | – | – | – | – | – | – | – | – | – | – | – | – | remarkably enhanced apoptotic effect and inhibited drug tolerance | apoptotic effect is enhanced remarkably and drug tolerance is inhibited | – | – | –
